# In article PMC5773577, “Novel Miniature Membrane Active Lipopeptidomimetics against Planktonic and Biofilm Embedded Methicillin-Resistant Staphylococcus aureus” (Scientific Reports, 2018):
# Residues, ends and D or L forms follow the SMILES beside them. No end group written: not given here.
# Tests used:
# MRSA (ATCC 33591) = assay: microbe, parasite or virus in culture; assay type: cell-based, Staphylococcus aureus; conditions: MHB, 2–5 × 10^5 CFU/mL, 16–18 h, 37 °C; for Minimum inhibitory concentration, MIC: OD600
# Method: (§1) The antibacterial activity was evaluated as MIC using slight modifications to a serial broth micro dilution method as reported previously[66],[67]. Briefly, to each treatment well of the 96-well plate (Corning Incorporated, USA) 10 μL of peptidomimetic/antibiotic was added and subsequently diluted serial 2-fold in 0.2% BSA (in 0.01% acetic acid). Then to each well of the first 11 columns 100 μL of mid-log phase bacterial suspension in MHB medium was added to get 2–5 × 10^5 CFU/mL. Cultures without test peptidomimetics/antibiotics were used as growth control. Uninoculated MHB medium was used as negative control. The microtitre plates were incubated overnight with agitation (180 rpm) at 37 °C. After 16–18 h incubation, absorbance was read at 600 nm using an ELISA plate reader (Molecular Devices, Sunnyvale, CA, USA). The experiments were carried out in duplicate on at least three different days.
# MRSA (ATCC 43300) = assay: microbe, parasite or virus in culture; assay type: cell-based, Staphylococcus aureus; conditions: Staphylococcus aureus, MHB, 2–5 × 10^5 CFU/mL, 16–18 h, 37 °C, OD600, read-out: Minimum inhibitory concentration, MIC
# Method: as §1
# S. aureus (ATCC 25923) = assay: microbe, parasite or virus in culture; assay type: cell-based, Staphylococcus aureus; conditions: 2–5 × 10^5 CFU/mL, 16–18 h, 37 °C
# Method: as §1
# S. aureus (ATCC 29213) = assay: microbe, parasite or virus in culture; assay type: cell-based, Staphylococcus aureus; conditions: 2–5 × 10^5 CFU/mL, 16–18 h, 37 °C, OD600, duplicate, at least three days
# Method: as §1
# S. aureus (ISP479C) = assay: microbe, parasite or virus in culture; assay type: cell-based, Staphylococcus aureus; conditions: MHB, 2–5 × 10^5 CFU/mL, 16–18 h, 37 °C
# Method: as §1
# [1] = test system: Methicillin-resistant S. epidermidis (ATCC 35984); assay: microbe, parasite or virus in culture; assay type: cell-based, Staphylococcus epidermidis; conditions: Staphylococcus epidermidis, ATCC 35984 / MRSE; MRSE ATCC 35984; MHB, 2–5 × 10^5 CFU/mL, 16–18 h, 37 °C, OD600; read-out: Minimum inhibitory concentration, MIC
# Method: as §1
# E. faecalis (ATCC 29212) = assay: microbe, parasite or virus in culture; assay type: cell-based; conditions: Enterococcus faecalis, ATCC29212, MHB, 2–5 × 10^5 CFU/mL, 16–18 h, 37 °C, read-out: Minimum inhibitory concentration, MIC
# Method: as §1
# [2] = test system: Vancomycin-resistant E. faecium (ATCC 700221); assay: microbe, parasite or virus in culture; assay type: cell-based; conditions: Enterococcus faecium, ATCC700221, MHB, 2–5 × 10^5 CFU/mL, 16–18 h, 37 °C, read-out: Minimum inhibitory concentration, MIC
# Method: as §1
# [3] = test system: E. faecium (E-447), clinical isolate of vancomycin-resistant E. faecium; assay: organism not typed; assay type: cell-based, Enterococcus faecium; conditions: read-out: Minimum inhibitory concentration, MIC
# Method: as §1
# [4] = test system: E. faecium (E-7846), clinical isolate of vancomycin-resistant E. faecium; assay: organism not typed; assay type: cell-based, Enterococcus faecium; conditions: read-out: Minimum inhibitory concentration, MIC
# Method: as §1
# S. aureus (ISP479R) = assay type: cell-based, Staphylococcus aureus; conditions: MHB, 2–5 × 10^5 CFU/mL, 16–18 h, 37 °C, OD600
# Method: as §1
# [5] = test system: mouse red blood cells (RBCs); assay: Hemolysis assay; assay type: cell-based; conditions: mouse RBC, up to 250 μg/mL, 1 h, 37 °C, PBS pH 7.4; 0.1% Triton X-100 = 100%; data not shown
# Method: For the experiment, a previously defined procedure was used with slight modifications[67],[68]. Briefly, blood was withdrawn from mice on the day of the experiment. After washing red blood cells (RBC) twice with phosphate buffer saline (PBS: 35 mM sodium phosphate, 150 mM NaCl, pH 7.4), a 4% v/v suspension of RBC was prepared in the same buffer. In a 96-well plate, serial two-fold dilutions of desired concentrations of peptidomimetics (in PBS) were prepared (100 μL) in duplicate. To each well 100 μL of 4% v/v RBC suspension was added. The plates were incubated at 37 °C for 1 h. After 1 h, the plates were centrifuged at 1500 rpm for 10 min and 20 μL of the supernatant was transferred to a fresh 96-well plate containing 80 μL PBS. The hemoglobin release was quantified by measuring OD414 in an ELISA plate reader (Molecular Devices, Sunnyvale, CA, USA). Hemoglobin release from 0.1% Triton X-100 treated RBC was set as 100% lysis (Amax) while as negative control RBC suspended in PBS alone was used (APBS). Percentage hemolysis was calculated using the following equation:1 %hemolysis=[(Asample−APBS)/(Amax−APBS)]×100
# MRSA ATCC 33591 [6] = assay: Membrane depolarization assay, DiSC3(5); assay type: cell-based, Staphylococcus aureus; conditions: 2 min, DiSC3(5), HEPES-glucose buffer pH 7.2, 37 °C, mean ± S.D., two days
# Method: The cytoplasmic membrane depolarization in MRSA ATCC 33591 strain was measured using membrane potential sensitive dye 3,3′-dipropylthiacarbocyanine iodide (DiSC3(5)) with a protocol described previously with slight modifications[23],[48]. Briefly, exponential phase cells grown in MHB were harvested by centrifugation, washed and re-suspended in respiration buffer (5 mM HEPES, 20 mM glucose, pH 7.2) to 2.5 × 10^6 CFU/mL. The cells were divided into 1 mL aliquots and incubated with 3.6 μM of DiSC3(5) (in dark) for 30 min to get steady baseline fluorescence intensity. The dye-loaded cells (800 μL) were then treated with peptidomimetics at respective 1× and 4× MIC concentrations (2–20 μL) and consequent fluorescence increase after 2 min of addition was measured in a Shimadzu RF-5301 PC spectrofluorimeter. As controls IL, melittin and VAN were also assayed under identical conditions. The samples were excited at 622 nm and emission was recorded between 650–700 nm with 3 nm slit width for both excitation and emission. The temperature was maintained at 37 °C throughout the experiment. Depolarization kinetics was measured at 4 × MIC of test agents for 5 min. The experiment was repeated on two different days and for Fig. 3 panel (A) mean ± S.D. data for % depolarization relative to melittin control (10 μM) set as 100% is presented here. For panel (B) representative data is shown here. The viability of dye-loaded cells corresponding to depolarization experiment at 4 × MIC concentration was also measured by plating the diluted aliquots onto BHI agar plates.
# MRSA ATCC 33591 [7] = assay: Membrane permeabilization assay, calcein-AM dye release, flow cytometry; assay type: cell-based, Staphylococcus aureus; conditions: PBS, 37 °C, mean ± S.D., two days
# Method: To assess the effect of designed peptidomimetics on membrane integrity of MRSA ATCC 33591 strain a calcein-AM dye release experiment was performed using the protocol described previously with slight modifications. Briefly, exponential phase MRSA ATCC 33591 culture was prepared in MHB medium as mentioned earlier and adjusted to OD600 = 1 (~10^9 CFU/mL) in PBS (10 mM sodium phosphate, 150 mM NaCl, pH 7.4). Thereafter, the cells were incubated at 37 °C with calcein-AM (2 μg/mL) in 10% MHB medium for 2 h. The calcein-loaded cells were washed once and re-suspended in PBS to OD600 = 0.5 (~10^8 CFU/mL). […] Subsequently, calcein fluorescence was measured via flow cytometry (Becton Dickinson (BD) FACS verse, San Jose, CA) with excitation and emission wavelengths of 488 nm and 530 ± 30 nm, respectively. For each sample, 10,000 cells were acquired. As a positive control, melittin (10 μM) was assayed under identical conditions. The experiment was repeated on two different days and mean ± S.D. is presented here. Corresponding to leakage a viability assay at 4 × MIC of respective test agents was also performed by incubating samples for 2 h at 37 °C and plating the diluted aliquots on BHI agar plates.
# MRSA ATCC 33591 [8] = assay: Cell viability corresponding to calcein leakage experiment; assay type: cell-based, Staphylococcus aureus; conditions: calcein-loaded cells in PBS, 4 × MIC (melittin 10 μM), 2 h incubation
# Method: To assess the effect of designed peptidomimetics on membrane integrity of MRSA ATCC 33591 strain a calcein-AM dye release experiment was performed using the protocol described previously with slight modifications[51]. Briefly, exponential phase MRSA ATCC 33591 culture was prepared in MHB medium as mentioned earlier and adjusted to OD600 = 1 (~10^9 CFU/mL) in PBS (10 mM sodium phosphate, 150 mM NaCl, pH 7.4). Thereafter, the cells were incubated at 37 °C with calcein-AM (2 μg/mL) in 10% MHB medium for 2 h. The calcein-loaded cells were washed once and re-suspended in PBS to OD600 = 0.5 (~10^8 CFU/mL). The cells were diluted 100× in PBS to get 3–5 × 10^5 CFU/mL and were incubated with different concentrations of test agents at 37 °C in dark for 2 h. Subsequently, calcein fluorescence was measured via flow cytometry (Becton Dickinson (BD) FACS verse, San Jose, CA) with excitation and emission wavelengths of 488 nm and 530 ± 30 nm, respectively. For each sample, 10,000 cells were acquired. As a positive control, melittin (10 μM) was assayed under identical conditions. The experiment was repeated on two different days and mean ± S.D. is presented here. […]
# agar plates. The plates were incubated at 37 °C for 16-18 h and colonies were counted. […]
# [9] = Staphylococcus aureus, OD600, read-out: Minimum inhibitory concentration, MIC
compound,measurement,setting,value
"Cc1onc(-c2ccccc2)c1C(=O)N[C@@H]1C(=O)N2[C@@H]1SC(C)(C)[C@@H]2C(=O)O [OXA, oxacillin]",MIC,MRSA (ATCC 33591); [9],56.8 µg/mL
same,MIC,MRSA (ATCC 43300),56.8 µg/mL
same,MIC,"S. aureus (ATCC 25923); Staphylococcus aureus, ATCC25923, MHB, OD600, read-out: Minimum inhibitory concentration, MIC",< 0.3 µg/mL
same,MIC,"S. aureus (ATCC 29213); Staphylococcus aureus, ATCC29213, MHB, read-out: Minimum inhibitory concentration, MIC",< 0.3 µg/mL
same,MIC,S. aureus (ISP479C); [9],0.3 µg/mL
same,MIC,[1],> 45.4 µg/mL
same,MIC,E. faecalis (ATCC 29212),5.6 µg/mL
same,MIC,[2],> 45.4 µg/mL
same,MIC,[3],> 233 µg/mL
same,MIC,[4],> 233 µg/mL
"N=C(N)NCCC[C@H](NC(=O)C(Cc1c(F)c(F)c(F)c(F)c1F)NC(=O)[C@H](CCCNC(=N)N)NC(=O)[C@@H](N)Cc1c[nH]c2ccccc12)C(=O)N[C@@H](Cc1c[nH]c2ccccc12)C(N)=O (stereo partly drawn) [S-4, Trp-Arg-(F5-Phe propionic acid)-Arg-Trp-CONH2] (HELM PEPTIDE1{W.R.[O=C(C(Cc1c(F)c(F)c(F)c(F)c1F)N[*:1])[*:2]].R.W.[am]}$$$$V2.0)","Minimum inhibitory concentration, MIC",S. aureus (ISP479R),45.4 µg/mL
same,"Minimum inhibitory concentration, MIC",MRSA (ATCC 33591),45.4 µg/mL
same,"Minimum inhibitory concentration, MIC","S. aureus (ATCC 25923); MHB, OD600",45.4 µg/mL
same,"Minimum inhibitory concentration, MIC",S. aureus (ATCC 29213); MHB,45.4 µg/mL
same,"Minimum inhibitory concentration, MIC",S. aureus (ISP479C); OD600,45.4 µg/mL
same,% hemolysis,[5],< 5%
"indolicidin (ILPWKWPWWPWRR; ends and bridges not checked; UniProt P33046 131-143, looked up) [naturally occurring Trp-Arg rich CAMP used as control]","Minimum inhibitory concentration, MIC",MRSA (ATCC 33591),3.2 µg/mL
same,"% depolarization relative to melittin control (10 μM, set as 100%)",MRSA ATCC 33591 [6]; at 4 × MIC,87.4 ± 5.5%
same,"% depolarization relative to melittin control (10 μM, set as 100%)",MRSA ATCC 33591 [6]; at MIC,48.3 ± 6.3%
same,% calcein leakage,"MRSA ATCC 33591 [7]; at 4 × MIC, 2 min incubation",42.2 ± 27.9%
same,% calcein leakage,"MRSA ATCC 33591 [7]; at 4 × MIC, 2 h incubation",50.6 ± 23.6%
same,% calcein leakage,"MRSA ATCC 33591 [7]; at MIC, 2 min incubation",6.2 ± 8.8%
same,% calcein leakage,"MRSA ATCC 33591 [7]; at MIC, 2 h incubation",2.7 ± 3.9%
same,log reduction in viability,MRSA ATCC 33591 [8],1.8 log
